By Ki is commonly meant a dissociation constant, usually derived from enzyme kinetics or from competition with a known ligand. What is called EC50 is the concentration that produces a half-maximal response.

Each structure is given as a SMILES string. Read-outs that look alike come from different tables or passages of the source.

Drawing on patent US11964978B2, “Modulators of STING (stimulator of interferon genes)” (PFIZER INC., priority 2021, dated 2024), this text covers Ki and EC50 for nine molecules.

The target in test [1] is T1, R232-STING (Homo sapiens (Human), UniProt Q86WV6, H232R). Kind of test: biochemical.
Test [2] has as its system phosphorylation of IRF3 in THP-1 cells (STING activation). As to the kind of experiment: Phosphorylation of IRF3: THP-1 cell ELISA. Type of test: cell-based. As to conditions: Homo sapiens, 3 hours incubation, read-out: THP-1 CELL P-IRF3 EC50. On the procedure: Phosphorylation of IRF3: THP-1 cell ELISA
STING activation results in recruitment of TBK1 and phosphorylation of IRF3 transcription factor before induction of type I interferons. THP-1 cells (InvivoGen) were grown in RPMI media plus 2 mM L-glutamine, 10% fetal bovine serum, and 0.5% Pen-Strep. 10^4 cells were seeded in 96-well plates and incubated overnight […]. Compounds serial diluted compounds in media (final 0.5% DMSO) were added to the cells and incubated for an additional 3 hours. After incubation, the plates were centrifuged at 2000 rpm for 5 min. The cells were then lysed in 100 μl RIPA buffer and vortexed for 30 minutes at room temperature. 25 μl of lysate was then transferred to clear polystyrene High Bind plates that had been previously coated with mouse anti-human IRF-3 capture antibody (BD Pharmigen), and allowed to incubate at 4° C. for 16 hours. The plates were then washed and incubated with rabbit anti-phospho-IRF3 detection antibody (Cell Signaling Technologies) for 1.5 hours at room temperature. Finally, an HRP-linked secondary antibody (Cell Signaling Technologies) was added for 30 min before the Glo Substrate Reagent (R&D Systems) was used generate the luminescent signal. The signal was measured using a Perkin-Elmer Envision microplate reader. Data were normalized to “% effect” with a positive control STING agonist that was known to maximize the phosphorylated IRF3 signal and the negative control was DMSO.

The test system of test [3] is THP-1 Lucia ISG cells (IRF-inducible Lucia luciferase reporter). As to the kind of experiment: Interferon-β induction: THP-1 ISG reporter cell line. The class given is cell-based. Particulars: THP1-Lucia ISG, 24 hours incubation, read-out: THP-1 Lucia ISG Cells IFN-β EC50. On the procedure: Interferon-β Induction: THP-1 ISG Reporter Cell Line
THP-1 Lucia™ ISG cells (InvivoGen) express the secreted luciferase “Lucia” reporter gene under the control of an IRF-inducible composite promotor comprised of five interferon response elements. THP-1 Lucia™ ISG cells were grown in RPMI media plus 2 mM L-glutamine, 10% fetal bovine serum, and 0.5% Pen-Strep. Hygromycin B and Zeocin were present to maintain stable transfection. 10^4 cells were seeded in 96-well plates and incubated overnight 37° C., 5% CO2. 50 μL of serial diluted compounds in media (final 0.5% DMSO) was and incubated for an additional 24 hours. After incubation, the plates were centrifuged at 2000 rpm for 10 min. 50 μl of cell culture supernatant of each well was transferred to a white, opaque 96-well plate. One pouch of QUANTI-Luc™ (InvivoGen) powder was prepared in 25 mL of endotoxin-free water and 100 μL of prepared warm QUANTI-Luc solution were added to each well containing the supernatant. The luminescence signal was measured using a Perkin-Elmer Envision microplate reader. Data were normalized to “% effect” with a positive control STING agonist that was known to maximize the luciferase signal and the negative control DMSO.

The target in test [4] is T1, R232-STING. As to conditions: read-out: R232-STING SPA-IC50 Ki; STING residues 155-341, 100 nM 3H-cGAMP; KI from IC50 with Cheng-Prusoff equation.

T1 sequence (Q86WV6 155-341 H232R): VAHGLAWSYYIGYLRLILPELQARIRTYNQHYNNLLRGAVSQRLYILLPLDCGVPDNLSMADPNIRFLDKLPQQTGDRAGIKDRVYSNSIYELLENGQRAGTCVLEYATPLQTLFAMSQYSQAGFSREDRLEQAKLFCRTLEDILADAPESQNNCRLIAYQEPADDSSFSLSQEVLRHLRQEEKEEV

Turning to `CCn1nc(C)cc1-c1cn(CC(C)O)c(-c2nc(C(N)=O)cc3c2cnn3C)n1` (racemic) [AIP05, (Rac)-4-[4-(1-ethyl-3-methyl-1H-pyrazol-5-yl)-1-(2-hydroxypropyl)-1H-imidazol-2-yl]-1-methyl-1H-pyrazolo[4,3-c]pyridine-6-carboxamide], the Ki on R232-STING [1] amounted to 27.1 nM. Moreover, the EC50 was found to be 1230 nM in test [2] and 1250 nM in test [3].
The like results for `Cc1cc(-c2cn(C)c(-c3nc(C(N)=O)cc4c3ccn4C)n2)n(CCCO)n1` [AIJ02, 4-{4-[1-(3-hydroxypropyl)-3-methyl-1H-pyrazol-5-yl]-1-methyl-1H-imidazol-2-yl}-1-methyl-1H-pyrrolo[3,2-c]pyridine-6-carboxamide] were, in that order, 39.7 nM, 1510 nM and 1920 nM.
Turning to `CCn1ncc2c(-c3nc(-c4cc(C)nn4CCCO)cn3C)nc(C(N)=O)cc21` [Example AIJ01, 1-ethyl-4-{4-[1-(3-hydroxypropyl)-3-methyl-1H-pyrazol-5-yl]-1-methyl-1H-imidazol-2-yl}-1H-pyrazolo[4,3-c]pyridine-6-carboxamide], at R232-STING [4], the Ki came out at 10.2 nM. The EC50 in test [2] came out at 400 nM; in test [3] it was 450 nM.
For `CCn1cc(-c2cc(C)nn2CCCOC)nc1-c1nc(C(N)=O)cc2c1cnn2C` [Example AIK01, 4-{1-ethyl-4-[1-(3-methoxypropyl)-3-methyl-1H-pyrazol-5-yl]-1H-imidazol-2-yl}-1-methyl-1H-pyrazolo[4,3-c]pyridine-6-carboxamide] the same measures were 15.2 nM, 330 nM and 430 nM.
The like results for `Cc1cc(-c2cn(C)c(-c3nc(C(N)=O)cc4c3cnn4C)n2)n(CCCOC(F)F)n1` [Example AIL01, 4-(4-{1-[3-(difluoromethoxy)propyl]-3-methyl-1H-pyrazol-5-yl}-1-methyl-1H-imidazol-2-yl)-1-methyl-1H-pyrazolo[4,3-c]pyridine-6-carboxamide] were, in that order, 24.6 nM, 530 nM and 530 nM.
The like results for `COCCCn1nc(C)cc1-c1cn(C)c(-c2nc(C(N)=O)cc3c2cnn3C2CC2)n1` [Example AIN01, 1-cyclopropyl-4-{4-[1-(3-methoxypropyl)-3-methyl-1H-pyrazol-5-yl]-1-methyl-1H-imidazol-2-yl}-1H-pyrazolo[4,3-c]pyridine-6-carboxamide] were, in that order, 4.6 nM, 730 nM and 800 nM.
`Cc1cc(-c2cn(C)c(-c3nc(C(N)=O)cc4c3cnn4C)n2)n(CC#N)n1` [Example AIP01, 4-{4-[1-(cyanomethyl)-3-methyl-1H-pyrazol-5-yl]-1-methyl-1H-imidazol-2-yl}-1-methyl-1H-pyrazolo[4,3-c]pyridine-6-carboxamide]: the Ki at R232-STING [4] amounted to 43.1 nM. Also, the EC50 in test [2] and in test [3] was greater than 10000 nM each time.
With `Cc1cc(-c2cn(C)c(-c3nc(C(N)=O)cc4c3cnn4C)n2)n(CC(N)=O)n1` [Example AIP02, 4-{4-[1-(2-amino-2-oxoethyl)-3-methyl-1H-pyrazol-5-yl]-1-methyl-1H-imidazol-2-yl}-1-methyl-1H-pyrazolo[4,3-c]pyridine-6-carboxamide], on R232-STING [4], the inhibition constant (Ki) came out at 161 nM. Also, the concentration for a half-maximal effect (EC50) in test [2] and in test [3] was greater than 10000 nM each time.
With `Cc1cc(-c2cn(C)c(-c3nc(C(N)=O)cc4c3cnn4C)n2)n(CCC#N)n1` [Example AIQ01, 4-{4-[1-(2-cyanoethyl)-3-methyl-1H-pyrazol-5-yl]-1-methyl-1H-imidazol-2-yl}-1-methyl-1H-pyrazolo[4,3-c]pyridine-6-carboxamide], the Ki at R232-STING [4] was 62.6 nM. Moreover, the results for the EC50 in test [2] and in test [3] were 2240 nM and 2260 nM, respectively.
